We go through two compounds from patent publication US10780145B2, “In situ forming hydrogel and method using same” (Arizona Board of Regents on behalf of Arizona State …, priority 2011, dated 2020).

A short description of data set [1]: Solubility of vancomycin loaded into the polymer solution. It is filed as physicochemical. The note with it: loaded at 50 mg/mL. Here is the method:
To prepare a solution for antibiotic delivery, the materials can be sterilized (such as by ethylene oxide gas sterilization) and then dissolved in 150 mM phosphate buffered saline (pH 7.4). After dissolution of the polymer, drug powder (finely ground) is added directly to the polymer solution and vortex mixed to distribute the drug evenly throughout the solution. The solutions can be stored in a freezer until use and thawed at the time of use. The solution then can be injected, brushed, poured, sprayed, or otherwise administered as a liquid at the desired site. The solution can also be allowed to warm to above its initial LCST and then implanted as a soft hydrogel at the desired site. Examples of desired sites for delivery of this material might include the surface of a joint prosthesis, the intramedullary canal before implantation of a prosthesis, an infected area, or any location deemed to have a risk of future infection. An example formulation might be a 30 wt % polymer solution with approximately 50 mg vancomycin hydrochloride loaded per mL of polymer solution.
FIG. 7 graphically illustrates a fraction of loaded vancomycin released from Applicants' injectable and degradable terpolymer I based gels comprising poly(NIPAAm-co-DBLA-co-JAAm) gels loaded with either 50 mg or 5 mg per gel.

Data set [2] in a line: Swelling and degradation of gels in excess PBS (pH 7.4) at 37° C. It counts as physicochemical. An excerpt: The control copolymer comprises […] of JAAm. […] These gels dissolve in approximately 20 weeks.
Gels flow when inverted after 7-10 days and dissolve completely within 2-3 weeks.

In the case of `CN[C@H](CC(C)C)C(=O)N[C@H]1C(=O)N[C@@H](CC(N)=O)C(=O)N[C@H]2C(=O)N[C@H]3C(=O)N[C@H](C(=O)N[C@H](C(=O)O)c4cc(O)cc(O)c4-c4cc3ccc4O)[C@H](O)c3ccc(c(Cl)c3)Oc3cc2cc(c3O[C@@H]2O[C@H](CO)[C@@H](O)[C@H](O)[C@H]2O[C@H]2C[C@](C)(N)[C@H](O)[C@H](C)O2)Oc2ccc(cc2Cl)[C@H]1O` [vancomycin], the “solubility in polymer solution” value in data set [1] is reported as “Some vancomycin is insoluble”.
Consider poly(NIPAAm-co-DBLA), for which the “Degradation time (37° C., pH 7.4)” value in data set [2] is recorded as about 20 weeks.
